Laboratory results published in patent publication US10512667B2, “Compositions and methods for treating conditions related to adrenocortical activity and/or excessive steroid production” (The Regents of the University of Michigan, priority 2017, dated 2019).
Entries after “also recorded” stand apart in the source; their conditions may differ.

Key:
[1] = system: H295R cells; assay: Cell morphology by phase contrast microscopy; assay type: cell-based; conditions: 30 h, phase contrast, hydrochloride
Description: FIG. 4E: […] The cells were cultured with DMSO vehicle (upper images) or with 40 μM ATR-101 (lower images) alone (left images), or in combination with 1.5 mM MβCD (middle images), or in combination with 40 μM cholesterol (right images). Cell morphology was visualized by phase contrast microscopy using a 10× objective. The images are representative of 5 fields under each set of culture conditions. The scale bars denote 100 μm.

[2] = system: BD140C cells; assay: Cellular ATP level (CellTiter-Glo); assay type: cell-based
Description: (§5) The ATP levels of cells were measured by lysis in CellTiter-Glo reagent (Promega), and measurement of the luminescence.
(§6) After 48 h, 20-80 μl of medium was removed from each well and replaced with 20 μl of each compound diluted to 6× of the final concentration in the culture medium to produce a final volume of 120 μl. The cells were incubated at 37 C in 5% CO2 atmosphere for a time ranging from 15 min to 24 h. The medium was removed and immediately replaced with 50 μl of CellTiter-Glo luminescence cell viability assay reagent (Promega). The cells were lysed by agitation at room temperature for 20 min in the dark. The luminescence was measured using a SpectraMax M5 microplate reader (Molecular Devices) with a 0.5 s acquisition time. The luminescence (RLU) values for control cells ranged from 5000 to 20000 RLU in all experiments, and were scaled by a factor of 0.001 to plot all graphs.

[3] = system: H295R cells; assay: Cellular ATP level (CellTiter-Glo);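 also: ATP quantified by luminescence after lysing the cells in CellTiter-Glo reagent, with compound exposure at 37 °C under 5% CO2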
Description: as §5, §6

[4] = system: H295R cells; assay: Cortisol secretion (indirect ELISA); assay type: cell-based
[5] = system: CYP17A1; assay: Transcript measurement by qPCR in H295R cells; assay type: cell-based; conditions: H295R cells cultured with ATR-101
Description: (§1) mRNA was isolated (Qiagen), and was reverse transcribed using the Transcriptor First Strand cDNA synthesis kit (Roche). The relative amounts of cDNAs corresponding to the indicated transcripts were quantified using qPCR assays with specific primers (Table 2).
(§2) H295R cells were seeded in 6-well tissue culture plates (Corning #3506) at a density of 5 X105 per well. After 48 h, the compound(s) indicated were added, and the cells were cultured for the indicated time. The cells were harvested in 1.35 ml culture medium with trypsin. The cells were collected by centrifugation and lysed in 350 μl of RLT buffer (Qiagen) with β-mercaptoethanol. mRNA extraction and DNase treatment were performed according to the manufacturer's protocol (Qiagen). All RNA samples had 260/280 ratios greater than 1.5. The same amount of RNA ranging from 0.1 to 0.5 μg was used for reverse transcription using the Roche Transcriptor First Strand cDNA synthesis kit (Roche #04897030001) using the manufacturer's protocol. SYBR Green I-based real-time qPCR assays were performed using a Roche LightCycler480 instrument. The levels of transcripts in different samples were normalized by the levels of RPL9 transcripts.

[6] = system: IDOL; assay: Transcript measurement by qPCR in H295R cells; assay type: cell-based; conditions: within an hour after addition
Description: as §1, §2

[7] = system: SULT2A1; assay: Transcript measurement by qPCR in H295R cells; assay type: cell-based; conditions: H295R cells cultured with ATR-101
Description: as §1, §2

[8] = system: ABCG1; assay: Transcript measurement by qPCR in H295R cells; assay type: cell-based
Description: as §1, §2

[9] = system: adrenal cortex; conditions: in vivo; cited from earlier work
[10] = molecular target: T1, MDR1 (Homo sapiens, UniProt P08183); assay: Doxorubicin accumulation / clearance in H295R cells; assay type: cell-based; conditions: 25 μM doxorubicin, 2 h
T1 construct: measured the accumulation of doxorubicin in H295R cells; endogenous in cells; host or cells: H295R adrenocortical carcinoma cells
Description: The medium was removed and immediately replaced with 100 μl of fresh media and intracellular doxorubicin fluorescence was visualized by fluorescence microscopy using a 20× objective.

[11] = system: H295R cells; assay: Cholesterol efflux into serum-free medium with apoA1; assay type: cell-based; conditions: serum-free medium containing apoA-I, 4 h
Description: Cholesterol efflux was measured by replacing the culture medium with serum-free medium supplemented with 5 μg/ml apoA1 (Sigma) and the indicated compounds. After the indicated time, the serum-free medium was collected, and the cholesterol concentration was measured using the fluorometric enzyme-linked assay (Cayman Chemical).
After 48 h, the medium was removed and replaced with 50 μl serum-free medium supplemented with 5 μg/mL apoA1. After the indicated time, the supernatant containing the effluxed cholesterol, was transferred to a new 96-well plate. A cholesterol detection reagent (Cayman Chemical) consisting of cholesterol assay buffer, cholesterol assay detector (10-acetyl-3,7-dihydroxyphenoxazine [ADHP]), horseradish peroxidase, cholesterol oxidase, and cholesterol esterase was added, and the reactions were incubated for 30 min at 37 C. The fluorescence intensities were measured using ex. […] 590 nm. The cholesterol concentrations were calculated by interpolation between the values produced by cholesterol standards that were analyzed in parallel.

[12] = system: guinea pig adrenal glands; conditions: cited from earlier work
[13] = system: BD140C cells; assay: Visualization of NBD-cholesterol esterification; assay type: cell-based; conditions: compound 2 h then 2 h with NBD-cholesterol
Description: (§3) The cells were seeded in 96-well ibiTreat μ-Plates and allowed to adhere for 48 h prior to the start of each experiment. Cholesterol was detected in fixed cells by incubating with 100 μg/ml filipin III at 37 C for 2 h. The bound filipin III was imaged by fluorescence microscopy using 377/11 nm excitation and 447/60 nm emission wavelengths. Images were captured using either a 4× or a 60× objective. Cholesterol esterification was visualized by culturing the cells with 1 μM NBD-cholesterol for 2 h following incubation with the indicated compounds. NBD-cholesterol esters were imaged by fluorescence microscopy using 485/20 nm excitation wavelengths. Images were captured using either a 20× or a 60× objective.
(§4) The cells were seeded in 96-well ibiTreat μ-Plates (Ibidi) in 100 μl at a density of 50,000 cells per well. […] 5 μl of NBD-cholesterol was added to each well to produce a final concentration of 1 μM. When NBD-cholesterol is esterified and localized to cytoplasmic lipid droplets, it produces bright fluorescent foci in the cell. The inhibition of ACAT activity prevents fluorescent focus formation by NBD-cholesterol (see, e.g., Lada, et al., 2004 J Lipid Res, 45, 378-86). After 1.5 h, 5 μl of Hoechst 33342 was added to each well to produce a final concentration of 3 μg/ml. After 30 min, the medium was replaced with fresh medium. NBD-cholesterol esterification was visualized by fluorescence microscopy using either 485/20 nm (NBD) or 387/11 nm (Hoechst) excitation wavelengths and images were captured using either a 60× oil objective or a 20× objective.

[14] = system: H295R cells; assay: Visualization of NBD-cholesterol esterification; assay type: cell-based; conditions: compound 2 h then 2 h with NBD-cholesterol, hydrochloride
Description: as §3, §4

CC(C)c1cccc(C(C)C)c1NC(=O)NCC1(c2ccc(N(C)C)cc2)CCCC1.Cl [ATR-101, N-(2,6-bis(1-methylethyl)phenyl)-N′-((1-(4-(dimethylamino)phenyl)cyclopentyl)methyl)urea hydrochloride]
cell morphology, compound alone [1]: small, rounded and weakly attached to the plate
ATP level, compound alone ([2]; 4 h): reduced the ATP level
ATP level, compound alone ([2]; 24 h): reduced the ATP levels
concentration required for ATP depletion and caspase activation relative to the concentration that inhibited cholesterol esterification ([3]; ACC-derived cells, 4 h): more than two orders of magnitude higher
time after ATR-101 addition at which ATP depletion was detected ([3]; H295R cells, 100 μM ATR-101): 30 min
fold lower concentration that reduced the ATP level in combination than required separately ([3]; H295R cells, ATR-101 and rhodamine-123 in combination, 4 h): 10 fold
ATP level, compound alone ([3]; H295R cells, serum-containing medium, 4 h): reduced the ATP level
ATP level, compound alone ([3]; H295R cells, serum-containing medium, 24 h): reduced the ATP levels
ATP level, compound alone ([3]; H295R cells, serum-free medium, 4 h): caused ATP depletion
basal and forskolin-stimulated cortisol secretion ([4]; 100 μM ATR-101, with or without 100 μM forskolin): blocked both basal and forskolin-stimulated cortisol secretion
cortisol secretion, compound alone ([4]; cortisol in medium, 4 h or time course, hydrochloride): inhibited cortisol secretion
CYP17A1 transcript level [5]: reduced
IDOL transcript level [6]: reduced
SULT2A1 transcript level [7]: reduced
ABCG1 transcript level ([8]; 4 h): inhibited
ABCG1 transcript level ([8]; within an hour after addition): reduced
adrenalytic activity [9]: has adrenalytic activity
doxorubicin accumulation ([10]; 20 μM compound): increased doxorubicin accumulation
doxorubicin accumulation in the presence of MβCD ([10]; 100 μM ATR-101, 4 mM MβCD): caused doxorubicin accumulation in the presence of MβCD
cholesterol efflux, compound alone [11]: inhibited cholesterol efflux
increase of the cholesterol level of adrenal glands ([12]; after 24 hours): 3 fold
onset of rise of the cholesterol level of adrenal glands ([12]; after ATR-101 administration): rises within an hour
NBD-cholesterol esterification and accumulation in lipid droplets [13]: inhibited NBD-cholesterol esterification
NBD-cholesterol esterification and accumulation in lipid droplets [14]: inhibits NBD-cholesterol esterification; also recorded: eliminated both the intense foci and the diffuse fluorescence
